Data taken from ChEMBL document CHEMBL1123731, “Synthesis and antiarrhythmic properties of novel 3-selena-7-azabicyclo[3.3.1]nonanes and derivatives. Single-crystal X-ray diffraction analysis of 7-benzyl-3-selena-7-azabicyclo[3.3.1]nonan-9-one and 7-benzyl-3-selena-7-azabicyclo[3.3.1]nonane hydroperchlorate” (1987).
Several values for one entry are separate records, joined by “and”; a condition that tells them apart may be missing. Equal entries are not always repeated. Activity calls are given as the source filed them. The calls are words filed in the database; no cut-off is given here.

Legend:
[1] = system: Canis familiaris; assay: Tested for mean blood pressure without ventricular tachycardia in dogs at a dose of 6 mg/kg Expt-1; format: functional, Canis lupus familiaris
[2] = system: Canis familiaris; assay: Tested for mean blood pressure without ventricular tachycardia in dogs at a dose of 6 mg/kg Expt-2; format: functional, Canis lupus familiaris
[3] = system: Canis familiaris; assay: Tested for mean blood pressure with ventricular tachycardia in dogs at a dose of 3 mg/kg Expt-2; format: functional, Canis lupus familiaris
[4] = system: Canis familiaris; assay: Tested for Norman sinus rhythm in dogs at a dose of 3 mg/kg Expt-1; format: functional, Canis lupus familiaris
[5] = system: Canis familiaris; assay: Tested for Norman sinus rhythm in dogs at a dose of 3 mg/kg Expt-2; format: functional, Canis lupus familiaris
[6] = system: Canis familiaris; assay: Tested for Norman sinus rhythm in dogs at a dose of 6 mg/kg Expt-1; format: functional, Canis lupus familiaris
[7] = system: Canis familiaris; assay: Tested for Norman sinus rhythm in dogs at a dose of 6 mg/kg Expt-2; format: functional, Canis lupus familiaris
[8] = system: Canis familiaris; assay: Tested for Sustained ventricular tachycardia in dogs at a dose of 3 mg/kg Expt-2; format: functional, Canis lupus familiaris, Cardiac ventricle
[9] = system: Canis familiaris; assay: Tested for Sustained ventricular tachycardia in dogs at a dose of 6 mg/kg Expt-2; format: functional, Canis lupus familiaris, Cardiac ventricle
[10] = system: Canis familiaris; assay: Tested for mean blood pressure with ventricular tachycardia in dogs at a dose of 6 mg/kg Expt-2; format: functional, Canis lupus familiaris
[11] = system: Canis familiaris; assay: Tested for mean blood pressure without ventricular tachycardia in dogs at a dose of 3 mg/kg Expt-1; format: functional, Canis lupus familiaris
[12] = system: Canis familiaris; assay: Tested for mean blood pressure without ventricular tachycardia in dogs at a dose of 3 mg/kg Expt-2; format: functional, Canis lupus familiaris
[13] = species on record: Canis familiaris; assay: Relative effect on exacerbation of ventricular tachycardia in dogs; exacerbation of VT; format: functional, organism-based; conditions: Canis lupus familiaris; Cardiac ventricle
[14] = species on record: Canis familiaris; assay: Relative effect on abolition of ventricular tachycardia in dogs; format: functional, organism-based; conditions: Canis lupus familiaris; Cardiac ventricle
[15] = species on record: Canis familiaris; assay: Relative effect on normal sinus rate in dogs;Slight decrease; format: functional, organism-based; conditions: Canis lupus familiaris
[16] = species on record: Canis familiaris; assay: Relative effect on normal sinus rate in dogs;Slight increase; format: functional, organism-based; conditions: Canis lupus familiaris
[17] = species on record: Canis familiaris; assay: Relative effect on slowing of ventricular tachycardia in dogs; slowing of VT; format: functional, organism-based; conditions: Canis lupus familiaris; Cardiac ventricle
[18] = species on record: Canis familiaris; assay: Relative effect on mean blood pressure in dogs; Moderate change in mean BP; format: functional, organism-based; conditions: Canis lupus familiaris
[19] = species on record: Canis familiaris; assay: Relative effect on mean blood pressure in dogs;NC=no change in mean BP; format: functional, organism-based; conditions: Canis lupus familiaris
[20] = system: Canis familiaris; assay: Tested for mean blood pressure without ventricular tachycardia in dogs at a dose of 6 mg/kg expt-1; format: functional, Canis lupus familiaris
[21] = system: Canis familiaris; assay: Tested for mean blood pressure without ventricular tachycardia in dogs at a dose of 6 mg/kg expt-2; format: functional, Canis lupus familiaris
[22] = system: Canis familiaris; assay: Tested for mean blood pressure without ventricular tachycardia in dogs at a dose of 6 mg/kg expt-3; format: functional, Canis lupus familiaris
[23] = system: Canis familiaris; assay: Tested for mean blood pressure without ventricular tachycardia in dogs at a dose of 3 mg/kg expt-1; format: functional, Canis lupus familiaris
[24] = system: Canis familiaris; assay: Tested for mean blood pressure without ventricular tachycardia in dogs at a dose of 3 mg/kg expt-2; format: functional, Canis lupus familiaris
[25] = system: Canis familiaris; assay: Tested for mean blood pressure without ventricular tachycardia in dogs at a dose of 3 mg/kg expt-3; format: functional, Canis lupus familiaris
[26] = system: Canis familiaris; assay: Tested for Norman sinus rhythm in dogs at a dose of 3 mg/kg Expt-3; format: functional, Canis lupus familiaris
[27] = species on record: Canis familiaris; assay: Relative effect on exacerbation of ventricular tachycardia in dogs; no exacerbation of VT; format: functional, organism-based; conditions: Canis lupus familiaris; Cardiac ventricle
[28] = species on record: Canis familiaris; assay: Relative effect on abolition of ventricular tachycardia in dogs; abolition of VT; format: functional, organism-based; conditions: Canis lupus familiaris; Cardiac ventricle
[29] = species on record: Canis familiaris; assay: Relative effect on normal sinus rate in dogs;NC=no change; format: functional, organism-based; conditions: Canis lupus familiaris
[30] = species on record: Canis familiaris; assay: Relative effect on mean blood pressure in dogs; moderate increase by 16% in mean BP; format: functional, organism-based; conditions: Canis lupus familiaris
[31] = system: Canis familiaris; assay: Tested for Norman sinus rhythm in dogs at a dose of 6 mg/kg; format: functional, Canis lupus familiaris; design: unit not given beside the values
[32] = system: Canis familiaris; assay: Tested for mean blood pressure with ventricular tachycardia in dogs at a dose of 3 mg/kg expt-1; format: functional, Canis lupus familiaris
[33] = system: Canis familiaris; assay: Tested for mean blood pressure with ventricular tachycardia in dogs at a dose of 3 mg/kg expt-2; format: functional, Canis lupus familiaris
[34] = system: Canis familiaris; assay: Tested for Norman sinus rhythm in dogs at a dose of 3 mg/kg expt-1; format: functional, Canis lupus familiaris
[35] = system: Canis familiaris; assay: Tested for Norman sinus rhythm in dogs at a dose of 3 mg/kg expt-2; format: functional, Canis lupus familiaris
[36] = system: Canis familiaris; assay: Tested for mean blood pressure with ventricular tachycardia in dogs at a dose of 6 mg/kg expt-1; format: functional, Canis lupus familiaris
[37] = system: Canis familiaris; assay: Tested for mean blood pressure with ventricular tachycardia in dogs at a dose of 6 mg/kg expt-2; format: functional, Canis lupus familiaris
[38] = species on record: Canis familiaris; assay: Relative effect on exacerbation of ventricular tachycardia in dogs; Exacerbation of VT present; format: functional, organism-based; conditions: Canis lupus familiaris; Cardiac ventricle
[39] = species on record: Canis familiaris; assay: Relative effect on abolition of ventricular tachycardia in dogs; no abolition of VT; format: functional, organism-based; conditions: Canis lupus familiaris; Cardiac ventricle
[40] = species on record: Canis familiaris; assay: Relative effect on normal sinus rate in dogs;NC =no change in normal sinus rate.; format: functional, organism-based; conditions: Canis lupus familiaris
[41] = species on record: Canis familiaris; assay: Relative effect on slowing of ventricular tachycardia in dogs;slowing of VT present; format: functional, organism-based; conditions: Canis lupus familiaris; Cardiac ventricle
[42] = species on record: Canis familiaris; assay: Relative effect on mean blood pressure in dogs;NC = no change in mean BP; format: functional, organism-based; conditions: Canis lupus familiaris
[43] = system: Canis familiaris; assay: Tested for Norman sinus rhythm in dogs at a dose of 6 mg/kg expt-1; format: functional, Canis lupus familiaris
[44] = system: Canis familiaris; assay: Tested for Norman sinus rhythm in dogs at a dose of 6 mg/kg expt-2; format: functional, Canis lupus familiaris
[45] = system: Canis familiaris; assay: Tested for Sustained ventricular tachycardia in dogs at a dose of 3 mg/kg Expt-1; format: functional, Canis lupus familiaris, Cardiac ventricle
[46] = system: Canis familiaris; assay: Tested for Sustained ventricular tachycardia in dogs at a dose of 6 mg/kg Expt-1; format: functional, Canis lupus familiaris, Cardiac ventricle
[47] = system: Canis familiaris; assay: Tested for mean blood pressure with ventricular tachycardia in dogs at a dose of 6 mg/kg Expt-1; format: functional, Canis lupus familiaris
[48] = species on record: Canis familiaris; assay: Relative effect on mean blood pressure in dogs; NC=no change; format: functional, organism-based; conditions: Canis lupus familiaris
[49] = species on record: Canis familiaris; assay: Relative effect on normal sinus rate in dogs; NC=no change; format: functional, organism-based; conditions: Canis lupus familiaris
[50] = system: Canis familiaris; assay: Tested for mean blood pressure without ventricular tachycardia in dogs at a dose of 6 mg/kg; format: functional, Canis lupus familiaris
[51] = system: Canis familiaris; assay: Tested for Norman sinus rhythm in dogs at a dose of 3 mg/kg; format: functional, Canis lupus familiaris
[52] = system: Canis familiaris; assay: Tested for mean blood pressure without ventricular tachycardia in dogs at a dose of 3 mg/kg; format: functional, Canis lupus familiaris
[53] = species on record: Canis familiaris; assay: Relative effect on exacerbation of ventricular tachycardia in dogs; No exacerbation of VT; format: functional, organism-based; conditions: Canis lupus familiaris; Cardiac ventricle
[54] = species on record: Canis familiaris; assay: Relative effect on abolition of ventricular tachycardia in dogs;abolition of VT; format: functional, organism-based; conditions: Canis lupus familiaris; Cardiac ventricle
[55] = system: Canis familiaris; assay: Relative effect on mean blood pressure in dogs; Slight 8% increase im mean BP; format: functional, organism-based; conditions: Canis lupus familiaris

SMILES: c1ccc([C@H]2N[C@@H](c3ccccc3)C3C[Se]CC2C3)cc1
- MBP [1]: 125
- MBP [2]: 80
- MBP [3]: 30
- NSR [4]: 150
- NSR [5]: 150
- NSR [6]: 145
- NSR [7]: 140
- Activity [8]: 270 beats min-1
- Activity [9]: 280 beats min-1
- MBP [10]: 20
- MBP [11]: 125
- MBP [12]: 82
- Effect [13]: exacerbation of VT
- Effect [14]: exacerbation of VT
- Effect [15]: Slight
- Effect [16]: Slight
- Effect [17]: exacerbation of VT
- Effect [18]: mod
- Effect [19]: No change

SMILES: c1ccc(CCN2CC3C[Se]CC(C3)C2)cc1
- MBP [20]: 125
- MBP [21]: 150
- MBP [22]: 85
- MBP [23]: 128
- MBP [24]: 85
- MBP [25]: 150
- NSR [4]: 168
- NSR [5]: 150
- NSR [26]: 155
- Effect [27]: No exacerbation
- Effect [28]: abolition of ventricular tachycardia
- Effect [29]: inactive
- Effect [30]: mod
- NSR ([31]; 6 mg/kg): 165 and 150 and 155

SMILES: CCN(CC)CC(=O)Nc1c(C)cccc1C [LIDOCAINE]
- MBP [20]: 112
- MBP [21]: 72
- MBP [23]: 110
- MBP [24]: 70
- MBP [32]: 40
- MBP [33]: 75
- NSR [34]: 165
- NSR [35]: 150
- MBP [36]: 40
- MBP [37]: 52
- Effect [38]: Active
- Effect [39]: inactive
- Effect [40]: inactive
- Effect [41]: Active
- Effect [42]: inactive
- NSR [43]: 160
- NSR [44]: 150

SMILES: OC1(O)C2C[Se]CC1CN(Cc1ccccc1)C2
- MBP [1]: 125
- MBP [2]: 130
- MBP [3]: 40
- NSR [4]: 150
- NSR [5]: 155
- NSR [6]: 155
- NSR [7]: 150
- Activity [45]: 280 beats min-1
- Activity [8]: 300 beats min-1
- Activity [46]: 320 beats min-1
- Activity [9]: 255 beats min-1
- MBP [47]: 70
- MBP [10]: 60
- MBP [11]: 125
- MBP [12]: 130
- Effect [13]: exacerbation of VT
- Effect [48]: inactive
- Effect [39]: No exacerbation
- Effect [49]: inactive
- Effect [17]: exacerbation of VT

SMILES: c1ccc(CN2CC3C[Se]CC(C3)C2)cc1
- MBP [50]: 125
- NSR [51]: 160
- MBP [52]: 126
- Effect [53]: No exacerbation
- Effect [54]: abolition of ventricular tachycardia
- Effect [40]: No change
- Effect [55]: Slight
- NSR [31]: 160
